Source: US20240199571A1, “THIOPHENE COMPOUND AND APPLICATION THEREOF” (MEDSHINE DISCOVERY INC., priority 2021, published 2024)
pIC50: −log10 of the molar value. Counter-ions that a name gives are not always drawn.

Target: hERG potassium ion channels (Homo sapiens (Human), UniProt Q12809)
Test: Experiment 4: hERG potassium ion channel inhibition, automated patch clamp (Qpatch), CHO-hERG cells
Format: cell-based
Details: highest test concentration 40 μM
How it was run: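 Whole-cell automated patch clamp on CHO-hERG cells held at −80 mV: 50 ms −50 mV prepulse, 5 s +40 mV step, 5 s repolarization to −50 mV, every 15 s. Six final concentrations from 0.165 to 40 μM applied ascending, 2.5 min each; n≥3 cells per concentration.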

Sequence of hERG potassium ion channels (Q12809 whole entry): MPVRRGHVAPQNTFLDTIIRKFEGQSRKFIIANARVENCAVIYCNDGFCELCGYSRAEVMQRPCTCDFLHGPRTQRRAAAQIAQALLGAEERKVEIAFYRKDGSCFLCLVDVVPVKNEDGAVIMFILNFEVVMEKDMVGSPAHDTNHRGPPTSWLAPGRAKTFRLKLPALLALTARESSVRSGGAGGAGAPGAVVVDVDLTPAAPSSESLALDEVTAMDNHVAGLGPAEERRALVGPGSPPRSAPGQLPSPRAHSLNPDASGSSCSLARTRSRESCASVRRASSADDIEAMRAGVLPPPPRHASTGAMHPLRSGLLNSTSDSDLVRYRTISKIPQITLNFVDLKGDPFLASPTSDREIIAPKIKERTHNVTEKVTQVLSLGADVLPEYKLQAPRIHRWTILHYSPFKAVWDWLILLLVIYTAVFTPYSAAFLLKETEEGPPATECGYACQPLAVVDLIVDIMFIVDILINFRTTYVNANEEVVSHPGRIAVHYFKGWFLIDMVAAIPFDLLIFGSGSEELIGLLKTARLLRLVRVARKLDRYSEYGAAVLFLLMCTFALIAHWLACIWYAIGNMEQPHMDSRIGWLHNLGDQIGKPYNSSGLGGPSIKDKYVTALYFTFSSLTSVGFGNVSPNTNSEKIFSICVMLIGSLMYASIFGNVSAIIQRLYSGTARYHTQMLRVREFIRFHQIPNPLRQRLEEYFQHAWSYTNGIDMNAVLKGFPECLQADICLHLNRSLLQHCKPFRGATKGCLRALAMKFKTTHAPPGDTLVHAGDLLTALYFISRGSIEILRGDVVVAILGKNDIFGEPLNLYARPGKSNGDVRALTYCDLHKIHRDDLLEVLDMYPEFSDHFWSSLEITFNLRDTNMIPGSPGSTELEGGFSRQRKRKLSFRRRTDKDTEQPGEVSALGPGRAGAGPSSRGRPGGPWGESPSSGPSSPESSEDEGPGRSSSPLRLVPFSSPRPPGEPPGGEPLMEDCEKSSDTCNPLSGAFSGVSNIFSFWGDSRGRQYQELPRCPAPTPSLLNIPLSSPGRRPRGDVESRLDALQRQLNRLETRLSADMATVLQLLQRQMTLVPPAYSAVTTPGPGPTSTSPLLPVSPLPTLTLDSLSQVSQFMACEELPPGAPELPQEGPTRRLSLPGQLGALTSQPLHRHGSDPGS

| Structure (SMILES) | pIC50 |
| --- | --- |
| CC(C)(CO)n1cc2cc(-c3sc(C(=O)N4CCC[C@@H](N)C4)cc3-c3ccc(C#N)c(F)c3)ccc2n1 [Hydrochloride of compound 87] | 4.87 |
| CN[C@@H]1CCCN(C(=O)c2cc(-c3ccc(C#N)c(F)c3)c(-c3cc4nnn(CC(C)(C)O)c4c(F)c3F)s2)C1 [Hydrochloride of compound 98] | 4.73 |
